The values below come from patent publication US11603377B2, “MTORC1 modulators and uses thereof” (Aeovian Pharmaceuticals, Inc., priority 2020, dated 2023).

For orientation: Kd means the constant that tells how readily two partners part at equilibrium. A higher Kd goes with lower affinity. One may read the IC50 as the point on the concentration scale where inhibition reaches its midpoint.

The target of assay [1] is FKBP12 / FRB ternary complex (Homo sapiens (Human), UniProt P42345+P62942). Put plainly: SPR assay to characterize ternary complex formation with FKBP12 (FRB binding to rapalog-saturated FKBP12). To be noted: FRB dilutions with 100 nM rapalog on immobilized FKBP12. The procedure:
Example 30: SPR Assay to Characterize Ternary Complex Formation with FKBP12
(§1) Biotinylated avi-FKBP12 was immobilized on a streptavidin chip (Cytiva Series S SA) using a Biacore 8K or 8 k+ (Cytiva). To achieve an immobilization level of 100 RU, 0.3 μg/ml biotinylated avi-FKBP12 were injected for 80 sec at a flow rate of 10 μl/min. Serial dilution of FRB was prepared (12 concentrations, 3-fold dilutions, 0.00011-20 μM) and supplemented with 100 nM of rapalog. A-B-A injection mode was used to ensure saturation immobilized FKBP12 with respective rapalog. 100 nM solution of the respective rapalog was injected before FRB injection for 120 sec and during dissociation for 420 sec. The FRB dilutions were then injected 120 seconds contact time with increasing concentrations. […] 50 mM HEPES pH 7.5, 150 mM NaCl, 2 mM MgCl2, 1 mM DTT, 0.05% Tween-20, 1% DMSO was used as running buffer at a flow rate of 30 μl/min. The multi-cycle kinetics data were fit to a 1:1 binding model to measure the association rate ka (1/Ms), the dissociation rate kd (1/s) and the affinity Kd (M). In case of fast association and dissociation, steady state affinity analysis following the law of mass action was used to determine the affinity Kd (M).
On the technique in general: Surface plasmon resonance follows binding to a sensor surface in real time, without labels.

Assay [2] addresses mTORC1 (Homo sapiens (Human), UniProt P42345+P62942). In words: mTORC1 inhibition, AlphaLISA of Phospho-p70 S6 kinase (p70S6K pT389) in PC-3 cells. It counts as cell-based. To be noted: inhibition of p70S6K pT389 levels. For orientation: Alpha assays give light when donor and acceptor beads are brought close together.
Assay [3] has as its target FKBP12 (Homo sapiens (Human), UniProt P62942). Put plainly: SPR assay to determine binding affinity to FKBP12 (direct binding). As to conditions: immobilized biotinylated avi-FKBP12. The procedure:
SPR Assay to Determine Binding Affinity to FKBP12.
Biotinylated avi-FKBP12 was immobilized on a streptavidin chip (Cytiva Series S SA) using a Biacore 8K or 8 k+ (Cytiva). To achieve an immobilization level of 1000 RU, 2 μg/ml biotinylated avi-FKBP12 were injected for 100 sec at a flow rate of 10 μl/min. Rapalogs were diluted in DMSO to 100× working concentration. Each Rapalog was 100-fold diluted in 50 mM HEPES pH 7.5, 150 mM NaCl, 2 mM MgCl2, 1 mM DTT, 0.05% Tween-20 and a serial dilution prepared (9 concentrations, 3-fold dilutions, 0.08-500 nM). […] The compound dilutions were then injected at 100 uL/min for 120 seconds contact time in sequence with increasing concentrations. Dissociation was monitored for 3600 seconds. 50 mM HEPES pH 7.5, 150 mM NaCl, 2 mM MgCl2, 1 mM DTT, 0.05% Tween-20, 1% DMSO was used as running buffer. The single-cycle kinetics data were fit to a 1:1 binding model to measure the association rate ka (1/Ms), the dissociation rate kd (1/s) and the affinity Kd (M).

The target in assay [4] is mTORC2 (Homo sapiens (Human), UniProt P42345+P62942). In words: mTORC2 inhibition, AlphaLISA of Phospho-AKT (pAKT pS473) in PC3 cells. In kind it is cell-based. The procedure: Example 32: mTORC1 Inhibition, mTORC2 Inhibition, Cell Lysis, AlphaLISA Experiments, and Data Analysis
mTORC2 inhibition was determined via analysis of phosphorylation level of Phospho-AKT (pAKT pS473) with the corresponding AlphaLISA kit (PerkinElmer, Alpha SF Ultra™ Multiplex p-AKT1/2/3(Ser473)/Total AKT1). PC3 cells were plated on 96 well plates in assay medium (DMEM: Ham's F12, basic (CLS Cell Lines Service GmbH, Cat #820400a), supplemented with additional 10% FBS at 1.20E+06 cells/mL and incubated over-night at 37° C., 5% CO2. On the following day, cells were treated with assay medium (10% FBS) containing increasing compound concentrations (12 points at 3-fold dilutions) and incubated for 6 hours at 37° C., 5% CO2. Thereafter, medium was aspirated and cells were rinsed with PBS. In the following, cells were treated with compound dilutions in starvation medium (DMEM: Ham's F12, basic; without FBS) for further 18 h at 37° C., 5% CO2. Then, immediately prior to cell lysis, cells were treated with 12% FBS for 15 min.
After performing experiments according to mTORC1 and mTORC2 protocols, cells were harvested in lysis buffer supplied with the AlphaLISA kits, additionally enriched with Roche cOmplete™ Protease Inhibitor Cocktail (Cat #CO-RO). Thus, cells were lysed using 50 μL of the lysis buffer and incubated for 60 min at 4° C. while shaking. After centrifugation at 4000 rpm for 5 min, experiments were performed according to the AlphaLISA manufacturer's protocol.
Ten microliters of cell lysates were mixed with the acceptor mix. After incubation for 2 h at room temperature, the donor mix was added. After additional incubation at room temperature for 2 hours, AlphaLISA signal was read on PHERAstar® FSX (BMG Labtech) with AlphaPLEX module.
EC50 values were calculated by ExcelFit standard algorithm.

Assay [5] deals with FKBP51 (Homo sapiens (Human), UniProt Q13451). Put plainly: SPR assay to determine binding affinity to FKBP51 (direct binding). As to conditions: immobilized biotinylated avi-FKBP51. The procedure: Example 29: SPR Assay to Determine Binding Affinity to FKBP51
Biotinylated avi-FKBP51 was immobilized on a streptavidin chip (Cytiva Series S SA) using a Biacore 8K or 8 k+ (Cytiva). To achieve an immobilization level of 2000 RU, 3 μg/ml biotinylated avi-FKBP51 were injected for 360 sec at a flow rate of 10 μl/min. Rapalogs were diluted in DMSO to 100× working concentration. Each Rapalog was 100-fold diluted in 50 mM HEPES pH 7.5, 150 mM NaCl, 2 mM MgCl2, 1 mM DTT, 0.05% Tween-20 and a serial dilution prepared (8 concentrations, 3-fold dilutions, 0.5-1000 nM). […] The compound dilutions were then injected at 100 uL/min for 120 seconds contact time and with 3600 seconds dissociation time with increasing concentrations. 50 mM HEPES pH 7.5, 150 mM NaCl, 2 mM MgCl2, 1 mM DTT, 0.05% Tween-20, 1% DMSO was used as running buffer. Multi-cycle kinetics data were fit to a 1:1 binding model to measure the association rate ka (1/Ms), the dissociation rate kd (1/s) and the affinity Kd (M).

For assay [6], the target named is FKBP51 / FRB ternary complex (Homo sapiens (Human), UniProt P42345+Q13451). Put plainly: SPR assay to characterize ternary complex formation with FKBP51 (FRB binding to rapalog-saturated FKBP51). To be noted: FRB dilutions with 100 nM rapalog on immobilized FKBP51. The procedure:
Example 31: SPR Assay to Characterize Ternary Complex Formation with FKBP51
as §1, with “Biotinylated avi-FKBP51” for “Biotinylated avi-FKBP12”, “of 200” for “of 100”, “RU, 0.6” for “RU, 0.3”, “biotinylated avi-FKBP51” for “biotinylated avi-FKBP12”, “for 150” for “for 80”

Chain of FKBP12 (P62942 whole entry): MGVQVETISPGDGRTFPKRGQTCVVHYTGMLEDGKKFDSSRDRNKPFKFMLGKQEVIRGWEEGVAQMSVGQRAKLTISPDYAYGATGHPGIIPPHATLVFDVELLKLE
Chain of FKBP51 (Q13451 whole entry): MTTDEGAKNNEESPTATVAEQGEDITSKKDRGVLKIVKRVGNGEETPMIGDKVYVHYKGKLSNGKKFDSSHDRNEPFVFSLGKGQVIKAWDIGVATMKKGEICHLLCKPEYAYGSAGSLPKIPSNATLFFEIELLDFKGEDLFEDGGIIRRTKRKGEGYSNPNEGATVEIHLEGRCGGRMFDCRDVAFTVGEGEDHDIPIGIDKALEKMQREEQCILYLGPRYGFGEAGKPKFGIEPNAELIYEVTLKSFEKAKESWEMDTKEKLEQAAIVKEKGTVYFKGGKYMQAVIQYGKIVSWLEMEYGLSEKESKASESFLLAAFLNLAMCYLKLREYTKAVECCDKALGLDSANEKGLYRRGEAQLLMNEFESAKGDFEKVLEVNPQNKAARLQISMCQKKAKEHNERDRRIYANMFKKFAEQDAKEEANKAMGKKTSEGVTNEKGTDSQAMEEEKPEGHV

Take `COCCOCCS(=O)(=O)N[C@@H]1C[C@@H]2CC[C@@H](C)[C@@](O)(O2)C(=O)C(=O)N2CCCC[C@H]2C(=O)O[C@H]([C@H](C)C[C@@H]2CC[C@@H](O)[C@H](OC)C2)CC(=O)[C@H](C)/C=C(\C)[C@@H](O)[C@@H](OC)C(=O)[C@H](C)C[C@H](C)/C=C/C=C/C=C/1C` [Compound 8]: the dissociation constant (Kd) in assay [1] is 300 to 800 nM; in assay [3], less than 0.3 nM; in assay [5] it was 10 to 100 nM; in assay [6], 300 to 800 nM. This compound displayed an IC50 in assay [2] of 0.1 to 0.8 nM. In assay [4], the “mTORC2 % inhibition at 1 uM” value was “B (B>20% and less than 40% inhibition at 1 uM)”.

For the compound `COCCOCCS(=O)(=O)N[C@H]1C[C@@H]2CC[C@@H](C)[C@@](O)(O2)C(=O)C(=O)N2CCCC[C@H]2C(=O)O[C@H]([C@H](C)C[C@@H]2CC[C@@H](O)[C@H](OC)C2)CC(=O)[C@H](C)/C=C(\C)[C@@H](O)[C@@H](OC)C(=O)[C@H](C)C[C@H](C)/C=C/C=C/C=C/1C` [Compound 9], the equilibrium dissociation constant (Kd) in assay [1] is less than 300 nM; in assay [3], less than 0.3 nM; in assay [5], less than 10 nM; in assay [6], less than 300 nM. This compound yielded a concentration for half-maximal inhibition (IC50) in assay [2] of less than 0.1 nM. For the same compound, the “mTORC2 % inhibition at 1 uM” value in assay [4] was “C (C≥40% and less than 60% inhibition at 1 uM)”.

For the compound `COC1C(=O)C(C)CC/C=C/C=C/C=C(\C)[C@H](NS(=O)(=O)CCO)C[C@H]2CC[C@H](C)[C@](O)(O2)C(=O)C(=O)N(C)C(C)C(=O)OC([C@H](C)C[C@@H]2CC[C@@H](OC3CC3)[C@H](OC)C2)CC(=O)C(C)/C=C(\C)C1O` (stereo partly drawn) [Compound 10], the dissociation constant Kd lay in the range of 300 to 800 nM in assay [1], 0.3 to 1 nM in assay [3], 10 to 100 nM in assay [5] and 300 to 800 nM in assay [6]. Moreover, in assay [2], the half-maximal inhibitory concentration (IC50) fell in the range of 0.1 to 0.8 nM. The “mTORC2 % inhibition at 1 uM” value in assay [4] was “A (A ≤20% inhibition at 1 micro Molar (uM))”.

Regarding `COC1C(=O)C(C)CC/C=C/C=C/C=C(\C)[C@@H](NS(=O)(=O)CCO)C[C@H]2CC[C@H](C)[C@](O)(O2)C(=O)C(=O)N(C)C(C)C(=O)OC([C@H](C)C[C@@H]2CC[C@@H](OC3CC3)[C@H](OC)C2)CC(=O)C(C)/C=C(\C)C1O` (stereo partly drawn) [Compound 11], the Kd in assay [1] was 300 to 800 nM; in assay [3] it was 0.3 to 1 nM; in assay [5], 10 to 100 nM; in assay [6], 300 to 800 nM. Moreover, in assay [2], the concentration for half-maximal inhibition (IC50) is 0.1 to 0.8 nM. The “mTORC2 % inhibition at 1 uM” value in assay [4] is “A (A ≤20% inhibition at 1 micro Molar (uM))”.

With `CCOC(=O)CS(=O)(=O)NC1C[C@H]2CC[C@H](C)[C@](O)(O2)C(=O)C(=O)N(C)C(C)C(=O)OC([C@H](C)C[C@@H]2CC[C@@H](OC3CC3)[C@H](OC)C2)CC(=O)C(C)/C=C(\C)C(O)C(OC)C(=O)C(C)CC/C=C/C=C/C=C/1C` (stereo partly drawn) [Compound 12], the dissociation constant Kd in assay [1] was 300 to 800 nM; in assay [3], 0.3 to 1 nM; in assay [5], 10 to 100 nM; in assay [6] it was 300 to 800 nM. The IC50 in assay [2] was greater than 0.8 nM. In assay [4], the “mTORC2 % inhibition at 1 uM” value is reported as “A (A ≤20% inhibition at 1 micro Molar (uM))”.

With `COC1C(=O)C(C)CC/C=C/C=C/C=C(\C)C(NS(=O)(=O)CCCS(=O)(=O)O)C[C@H]2CC[C@H](C)[C@](O)(O2)C(=O)C(=O)N(C)C(C)C(=O)OC([C@H](C)C[C@@H]2CC[C@@H](OC3CC3)[C@H](OC)C2)CC(=O)C(C)/C=C(\C)C1O` (stereo partly drawn) [Compound 18], the Kd in assay [1] was in the range of 300 to 800 nM; in assay [3], 0.3 to 1 nM; in assay [5] it was 10 to 100 nM; in assay [6] it was 300 to 800 nM. The IC50 in assay [2] is 0.1 to 0.8 nM. Moreover, in assay [4], the “mTORC2 % inhibition at 1 uM” value is reported as “A (A ≤20% inhibition at 1 micro Molar (uM))”.

For `CO[C@@H]1C[C@H](C[C@@H](C)[C@@H]2CC(=O)[C@H](C)/C=C(\C)[C@@H](O)[C@@H](OC)C(=O)[C@H](C)C[C@H](C)/C=C/C=C/C=C(\C)[C@H](NS(=O)(=O)CC3CCCCC3)C[C@@H]3CC[C@@H](C)[C@@](O)(O3)C(=O)C(=O)N3CCCC[C@H]3C(=O)O2)CC[C@H]1O` [Compound 19], the Kd was greater than 800 nM in assay [1], 0.3 to 1 nM in assay [3], greater than 100 nM in assay [5] and greater than 800 nM in assay [6]. This compound came in with an IC50 in assay [2] greater than 0.8 nM. Moreover, the “mTORC2 % inhibition at 1 uM” value in assay [4] is “B (B>20% and less than 40% inhibition at 1 uM)”.

In the case of `CO[C@@H]1C[C@H](C[C@@H](C)[C@@H]2CC(=O)[C@H](C)/C=C(\C)[C@@H](O)[C@@H](OC)C(=O)[C@H](C)C[C@H](C)/C=C/C=C/C=C(\C)[C@@H](NS(=O)(=O)CC3CCCCC3)C[C@@H]3CC[C@@H](C)[C@@](O)(O3)C(=O)C(=O)N3CCCC[C@H]3C(=O)O2)CC[C@H]1O` [Compound 20], the dissociation constant (Kd) is 300 to 800 nM in assay [1], less than 0.3 nM in assay [3], greater than 100 nM in assay [5] and greater than 800 nM in assay [6]. In addition, the concentration for half-maximal inhibition (IC50) in assay [2] was 0.1 to 0.8 nM. Also, the “mTORC2 % inhibition at 1 uM” value in assay [4] is “B (B>20% and less than 40% inhibition at 1 uM)”.
